US20230346777A1, “USE OF SGC ACTIVATORS FOR THE TREATMENT OF OPHTHALMOLOGIC DISEASES” (Bayer Aktiengesellschaft, priority 2020, published 2023)
Structures can show the parent of a compound that is named as a salt. Where two headings read alike, the source gives them in different places.

Key:
[1] = Pharmacokinetic parameters following intravenous and oral administration in dogs; assay type: in vivo, female beagles; conditions: for MRT / clearance / half-life: female, beagle, dog, plasma; for clearance: read-out: CLplasma (converted); for half-life: read-out: t½ (converted)
Method: (§1) B-2. Determination of Pharmacokinetic Parameters Following Intravenous and Oral Administration
(§2) The pharmacokinetic parameters of the compounds according to the invention were determined in male Wistar rats and/or in female beagles and/or in cynomolgus monkeys and/or in male CD-1 mice. Intravenous administration in the case of mice and rats was carried out by means of a species-specific plasma/DMSO formulation, and in the case of dogs and monkeys by means of a water/PEG400/ethanol formulation. In all species, oral administration of the dissolved substance was performed via gavage, based on a water/PEG400/ethanol formulation.
(§3) An internal standard (which may also be a chemically unrelated substance) was added to the samples of the compounds of the invention, calibration samples and qualifiers, and there followed protein precipitation by means of acetonitrile in excess. Addition of a buffer solution matched to the LC conditions, and subsequent vortexing, was followed by centrifugation at 1000 g. The supernatant was analysed by LC-MS/MS using C18 reversed-phase columns and variable mobile phase mixtures. The substances were quantified via the peak heights or areas from extracted ion chromatograms of specific selected ion monitoring experiments.
(§4) The plasma concentration/time plots determined were used to calculate the pharmacokinetic parameters such as AUC, Cmax, t1/2 (terminal half-life), F (bioavailability), MRT (mean residence time) and CL (clearance), by means of a validated pharmacokinetic calculation program.
(§5) Since the substance quantification was performed in plasma, it was necessary to determine the blood/plasma distribution of the substance in order to be able to adjust the pharmacokinetic parameters correspondingly.
(§6) For this purpose, a defined amount of substance was incubated in K3 EDTA whole blood of the species in question in a rocking roller mixer for 20 min. After centrifugation at 1000 g, the plasma concentration was measured (by means of LC-MS/MS; see above) and determined by calculating the ratio of the Cblood/Cplasma value.

[2] = Pharmacokinetic parameters following intravenous and oral administration in rats; assay type: in vivo, male Wistar rats; conditions: for clearance / MRT / half-life: male, Wistar, rat, plasma; for clearance: read-out: CLplasma (converted); for MRT: read-out: MRT; for half-life: read-out: t½ (converted)
Method: as §1, §2, §3, §4, §5, §6

[3] = biological target: T1, recombinant guanylate cyclase reporter cell line (Rattus norvegicus, UniProt P20595); assay: Effect on a recombinant guanylate cyclase reporter cell line; assay type: cell-based
T1 construct: expressed in transfected cells; CHO by own knowledge of the cited Wunder et al. 2005
T1 sequence (P20595 1-619): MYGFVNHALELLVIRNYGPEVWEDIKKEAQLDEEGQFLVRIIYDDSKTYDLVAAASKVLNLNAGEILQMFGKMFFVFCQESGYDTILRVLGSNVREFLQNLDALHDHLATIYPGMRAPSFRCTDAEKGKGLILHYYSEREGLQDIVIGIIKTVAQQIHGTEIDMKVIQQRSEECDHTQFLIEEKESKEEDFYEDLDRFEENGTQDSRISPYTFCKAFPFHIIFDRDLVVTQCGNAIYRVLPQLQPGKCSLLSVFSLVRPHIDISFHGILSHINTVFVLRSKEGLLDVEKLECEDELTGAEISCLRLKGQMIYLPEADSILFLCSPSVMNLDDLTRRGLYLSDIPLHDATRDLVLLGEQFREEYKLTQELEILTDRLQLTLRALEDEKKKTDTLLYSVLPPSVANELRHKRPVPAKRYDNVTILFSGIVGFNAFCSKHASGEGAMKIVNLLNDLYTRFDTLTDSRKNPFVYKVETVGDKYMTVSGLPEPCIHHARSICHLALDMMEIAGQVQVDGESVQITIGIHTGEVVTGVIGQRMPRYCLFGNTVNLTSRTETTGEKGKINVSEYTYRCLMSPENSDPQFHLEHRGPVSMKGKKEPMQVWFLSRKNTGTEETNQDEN
T1 sequence (P19686 1-690 partner): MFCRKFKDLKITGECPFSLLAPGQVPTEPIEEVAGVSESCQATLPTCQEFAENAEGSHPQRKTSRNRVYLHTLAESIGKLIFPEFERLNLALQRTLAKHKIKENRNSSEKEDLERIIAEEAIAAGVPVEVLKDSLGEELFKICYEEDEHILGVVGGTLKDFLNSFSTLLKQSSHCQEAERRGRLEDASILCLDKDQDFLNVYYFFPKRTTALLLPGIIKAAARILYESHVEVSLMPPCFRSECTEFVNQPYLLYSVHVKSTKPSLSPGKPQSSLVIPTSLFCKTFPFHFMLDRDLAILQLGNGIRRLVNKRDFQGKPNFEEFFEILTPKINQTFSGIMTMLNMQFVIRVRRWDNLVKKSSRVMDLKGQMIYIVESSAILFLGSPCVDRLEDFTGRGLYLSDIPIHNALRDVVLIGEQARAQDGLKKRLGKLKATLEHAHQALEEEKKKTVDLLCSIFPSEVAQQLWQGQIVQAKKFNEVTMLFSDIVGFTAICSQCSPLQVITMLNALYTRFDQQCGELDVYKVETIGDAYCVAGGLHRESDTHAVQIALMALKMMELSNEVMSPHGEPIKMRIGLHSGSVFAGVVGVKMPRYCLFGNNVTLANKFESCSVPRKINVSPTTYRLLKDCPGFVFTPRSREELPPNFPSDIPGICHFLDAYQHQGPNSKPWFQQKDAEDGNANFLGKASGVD
Method: B-1. Effect on a Recombinant Guanylate Cyclase Reporter Cell Line
The cellular activity of the compounds according to the invention was determined using a recombinant guanylate cyclase reporter cell line, as described in F. Wunder et al., Anal. Biochem. 339, 104-112 (2005).

[4] = intravenous administration (i.v.)

CC(C)CN1CCN(c2ccc(-c3ccc(Cl)cc3N3CCC[C@@H](n4ncc(C(=O)O)c4C(F)F)C3)cc2)CC1 (single isomer, unassigned) [Example 2, 1-[1-{4-Chloro-4′-[4-(2-methylpropyl)piperazin-1-yl][1,1′-biphenyl]-2-yl}piperidin-3-yl]-5-(difluoromethyl)-1H-pyrazole-4-carboxylic acid]
MRT [1, 4]: 25.6 h
clearance [1, 4]: 0.167 mL/min/kg
half-life [1, 4]: 17.7 h
MRT ([1]; oral administration (p.o.)): 21.3 h
half-life ([1]; oral administration (p.o.)): 14 h
AUCnorm [1, 4]: 81.7 kg·h/L
AUCnorm ([1]; oral administration (p.o.)): 67.7 kg·h/L
F ([1]; oral administration (p.o.)): 82.8%
AUCnorm ([2]; intravenous administration): 7.08 kg·h/L
clearance ([2]; iv, intravenous administration): 2.33 mL/min/kg
MRT ([2]; iv, intravenous administration): 3.44 h
half-life ([2]; iv, intravenous administration): 3.13 h
MRT ([2]; po, oral administration (p.o.)): 6.23 h
half-life ([2]; po, oral administration (p.o.)): 3.96 h
AUCnorm ([2]; oral administration (p.o.)): 3.77 kg·h/L
F ([2]; oral administration (p.o.)): 53.3%
EC50 [3]: 8.6 nM
MEC (minimum effective concentration) [3]: 1.0 nM

CC(C)CN1CCN(c2ccc(-c3ccc(Cl)cc3N3CCCC(n4ncc(C(=O)O)c4C(F)(F)F)C3)cc2)CC1 (single isomer, unassigned) [Example 9, 1-[1-{4-chloro-4′-[4-(2-methylpropyl)piperazin-1-yl][1,1′-biphenyl]-2-yl}piperidin-3-yl]-5-(trifluoromethyl)-1H-pyrazole-4-carboxylic acid hydrochloride]
MRT [1, 4]: 10.3 h
clearance [1, 4]: 0.5 mL/min/kg
half-life [1, 4]: 7.86 h
MRT ([1]; oral administration (p.o.)): 13.7 h
half-life ([1]; oral administration (p.o.)): 9.28 h
AUCnorm [1, 4]: 37.4 kg·h/L
AUCnorm ([1]; oral administration (p.o.)): 31.7 kg·h/L
F ([1]; oral administration (p.o.)): 84.8%
AUCnorm ([2]; intravenous administration): 5.48 kg·h/L
clearance ([2]; iv, intravenous administration): 3 mL/min/kg
MRT ([2]; iv, intravenous administration): 5.83 h
half-life ([2]; iv, intravenous administration): 4.1 h
MRT ([2]; po, oral administration (p.o.)): 8.51 h
half-life ([2]; po, oral administration (p.o.)): 4.96 h
AUCnorm ([2]; oral administration (p.o.)): 4.50 kg·h/L
F ([2]; oral administration (p.o.)): 82.1%
EC50 [3]: 11 nM
MEC (minimum effective concentration) ([3]; hydrochloride): 2.2 nM
